Reference: PubChem BioAssay AID1963845 (Molecular Pharmacology Branch, DTP, NCI, 2024)

Test system: 429239-143-T-J1-PDC complex spheroid viability
Assay: Anticancer human tumor 429239-143-T-J1-PDC patient-derived small cell lung carcinoma cell line growth inhibition [POLQ]
Settings: for IC50: curve of first compound; for viability, T/C: stronger effect = lower value; active = viability on the fitted dose curve at most 10% of control; inactive = the rest
Protocol: Multicellular complex tumor spheroid response to Polymerase (POL) inhibitors (novobiocin, ART-558, RP6685) in combination with a variety of drugs and investigational agents in selected tumor cell lines
The POL inhibitors (novobiocin, ART-558, and RP6685) were evaluated both individually and in combination with standard of care and investigational anticancer small molecules within a complex spheroid model of solid tumors. . Complex spheroids include a stromal component modeled by human endothelial cells (HUVEC) and fibroblasts modeled by human mesenchymal stem cells (MSCs). The concentration ranges selected for each drug and investigational agent were based upon clinically achievable concentrations if the clinical Cmax of the agent was known.
Compounds. The drugs and investigational agents: novobiocin (NSC847541), ART-558 (NSC835418), RP-6685 (NSC848927), peposertib (NSC802822), ceralasertib (NSC780249), elimusertib (NSC800525), camonsertib (NSC841442), AZD-1390 (NSC803789), olaparib (NSC753686), talazoparib (NSC767125), rucaparib (NSC756644), sotorasib (NSC818433), MRTX-1133 (NSC836407), SN-38 (NSC673596), topotecan (NSC609699), epotoside (NSC141540), doxorubicin (NSC123127), gemcitabine (NSC613327), 5-fluorouracil (NSC19893), paclitaxel (NSC125973), vemurafenib (NSC761431), MSA-2 (NSC828583), SN-011 (NSC837082), adavosertib (NSC754352), prexasertib (NSC758257), carboplatin (NSC241240) and oxaliplatin (NSC266046), were obtained from the National Cancer Institute (NCI) Developmental Therapeutics Program Chemical Repository (21). The FDA-approved anticancer drug set is available from the Developmental Therapeutics Program at https://dtp.cancer.gov/organization/dscb/obtaining/. […] The stock solutions were prepared in dimethyl sulfoxide (DMSO, Sigma-Aldrich, St. Louis, MO, cat. D2650), except for the platinum compounds which were prepared in saline (Quality Biological, Gaithersburg, MD, cat. 114-055-101), at 800-fold the tested concentration and stored at -70 degrees C prior to their use. All drugs and investigational agents were tested over a range starting from a high concentration at or near the clinical Cmax and decreasing in half-log increments. If the clinical Cmax for an agent had not been determined, the highest concentration tested was 10 microM, except for SN-38, which was tested at a high concentration of 1 microM.
Cell Culture. All cells were maintained in an incubator at 37 degrees C and 5% CO2 with 95% humidity. The PDC lines were cultured according to standard operating procedures established by the NCI PDMR (https://pdmr.cancer.gov). Table 3 of the manuscript, lists the cell lines along with the number of the three cell types plated to form the mct-spheroids and media for tumor cell growth. After thawing, all PDC lines, except 997537-175-T-J1-PDC and 415267-285-R-J2-PDC, were cultured in Matrigel-coated flasks prepared with a working solution of 1X Ham's F-12 nutrient mix, without supplementation (Thermo Fisher Scientific, cat. 11765054), 100 U/mL penicillin-streptomycin (Thermo Fisher Scientific, cat. 15140122), and 2.5% Matrigel (Corning Inc., Corning, NY, cat. 354248) for the first three passages. The two PDC lines 997537-175-T-J1-PDC and 415267-285-R-J2-PDC were cultured on uncoated flasks. The 857933-349-R-J2-PDC line was cultured in 6C/Colon 1B media containing advanced DMEM/F-12 (Thermo Fisher Scientific, cat. 12634028), 10 mM HEPES (Thermo Fisher Scientific, cat. 15630080), 1X GlutaMAX supplement (Thermo Fisher Scientific, cat. 35050061), 0.1 mg/mL primocin (InvivoGen, San Diego, CA, cat. ant-pm-2), 10% defined fetal bovine serum, heat inactivated (HyClone Laboratories Inc., Logan, UT, cat. SH30070.03HI), 50% L-WRN conditioned media (ATCC, cat. CRL-3276), 1.25 mM N-Acetyl-L-cysteine (Sigma-Aldrich, cat. A9165), 10 mM nicotinamide (Sigma-Aldrich, cat. N0636), 1X B-27 supplement (Thermo Fisher Scientific, cat. 17504044), 1X N-2 supplement (Thermo Fisher Scientific, cat. […]

[1] = second compound 0.0316 µM, first compound 0.0316 µM
[2] = second compound 0.0316 µM, first compound 0.1 µM
[3] = second compound 0.1 µM, first compound 0.0316 µM
[4] = second compound 0.1 µM, first compound 0.1 µM
[5] = second compound 0.316 µM, first compound 0.0316 µM
[6] = second compound 0.316 µM, first compound 0.1 µM
[7] = second compound 1 µM, first compound 0.0316 µM
[8] = second compound 1 µM, first compound 0.1 µM
[9] = second compound 3.16 µM, first compound 0.0316 µM
[10] = second compound 3.16 µM, first compound 0.1 µM
[11] = second compound 10 µM, first compound 0.0316 µM
[12] = second compound 10 µM, first compound 0.1 µM
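Also: luminescence signal used as surrogate measure of viable cells; spheroids exposed to compounds for seven days before readout.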
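For viability, T/C in this document: 100% = DMSO vehicle control viability as luminescence relative to vehicle.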

Cn1ncnc1[C@H]1c2n[nH]c(=O)c3cc(F)cc(c23)N[C@@H]1c1ccc(F)cc1 + Cc1cccc(N(C)C(=O)C2C(O)CCN2c2nc(C)cc(C(F)(F)F)c2C#N)c1
27 nM: IC50 (second compound 3.16 µM)
19 nM: IC50 (second compound 0.1 µM)
19.3 nM: IC50 (second compound 1 µM)
11.5 nM: IC50 (second compound 10 µM)
24.6 nM: IC50 (second compound 0.316 µM)
19.8 nM: IC50 (second compound 0.0316 µM)
inactive: viability, T/C (second compound 0.0316 µM, first compound 0.000316 µM) 107% | viability, T/C (second compound 0.0316 µM, first compound 0.001 µM) 107% | viability, T/C (second compound 0.0316 µM, first compound 0.00316 µM) 88.4% | viability, T/C (second compound 0.0316 µM, first compound 0.01 µM) 62.4% | viability, T/C [1] 42.7% | viability, T/C [2] 29.6% | viability, T/C (second compound 0.1 µM, first compound 0.000316 µM) 87.6% | viability, T/C (second compound 0.1 µM, first compound 0.001 µM) 98.4% | viability, T/C (second compound 0.1 µM, first compound 0.00316 µM) 78.1% | viability, T/C (second compound 0.1 µM, first compound 0.01 µM) 65.9% | viability, T/C [3] 34.7% | viability, T/C [4] 39.8% | viability, T/C (second compound 0.316 µM, first compound 0.000316 µM) 93.5% | viability, T/C (second compound 0.316 µM, first compound 0.001 µM) 86.2% | viability, T/C (second compound 0.316 µM, first compound 0.00316 µM) 73.3% | viability, T/C (second compound 0.316 µM, first compound 0.01 µM) 65.7% | viability, T/C [5] 44.7% | viability, T/C [6] 29.2% | viability, T/C (second compound 1 µM, first compound 0.000316 µM) 97.1% | viability, T/C (second compound 1 µM, first compound 0.001 µM) 98.7% | viability, T/C (second compound 1 µM, first compound 0.00316 µM) 74.6% | viability, T/C (second compound 1 µM, first compound 0.01 µM) 57.8% | viability, T/C [7] 47.1% | viability, T/C [8] 31.8% | viability, T/C (second compound 3.16 µM, first compound 0.000316 µM) 95.8% | viability, T/C (second compound 3.16 µM, first compound 0.001 µM) 83% | viability, T/C (second compound 3.16 µM, first compound 0.00316 µM) 84.4% | viability, T/C (second compound 3.16 µM, first compound 0.01 µM) 60.5% | viability, T/C [9] 49.1% | viability, T/C [10] 30.2% | viability, T/C (second compound 10 µM, first compound 0.000316 µM) 91.8% | viability, T/C (second compound 10 µM, first compound 0.001 µM) 86.1% | viability, T/C (second compound 10 µM, first compound 0.00316 µM) 98.5% | viability, T/C (second compound 10 µM, first compound 0.01 µM) 51.8% | viability, T/C [11] 41.2% | viability, T/C [12] 32%

CNCc1ccc(-c2[nH]c3cc(F)cc4c3c2CCNC4=O)cc1 + COC1C(OC(N)=O)C(O)C(Oc2ccc3c(O)c(NC(=O)c4ccc(O)c(CC=C(C)C)c4)c(=O)oc3c2C)OC1(C)C
2570 nM: IC50 (second compound 0.316 µM)
1580 nM: IC50 (second compound 10 µM)
1840 nM: IC50 (second compound 3.16 µM)
2400 nM: IC50 (second compound 0.1 µM)
2300 nM: IC50 (second compound 0.0316 µM)
2700 nM: IC50 (second compound 1 µM)
inactive: viability, T/C [1] 95.1% | viability, T/C [2] 75% | viability, T/C (second compound 0.0316 µM, first compound 0.316 µM) 87.1% | viability, T/C (second compound 0.0316 µM, first compound 1 µM) 66.5% | viability, T/C (second compound 0.0316 µM, first compound 3.16 µM) 43.2% | viability, T/C (second compound 0.0316 µM, first compound 10 µM) 23.2% | viability, T/C [3] 85.5% | viability, T/C [4] 101% | viability, T/C (second compound 0.1 µM, first compound 0.316 µM) 80.6% | viability, T/C (second compound 0.1 µM, first compound 1 µM) 65.9% | viability, T/C (second compound 0.1 µM, first compound 3.16 µM) 46.3% | viability, T/C (second compound 0.1 µM, first compound 10 µM) 21.4% | viability, T/C [5] 102% | viability, T/C [6] 85.5% | viability, T/C (second compound 0.316 µM, first compound 0.316 µM) 74.5% | viability, T/C (second compound 0.316 µM, first compound 1 µM) 69.6% | viability, T/C (second compound 0.316 µM, first compound 3.16 µM) 49.3% | viability, T/C (second compound 0.316 µM, first compound 10 µM) 21.4% | viability, T/C [7] 87.5% | viability, T/C [8] 86.9% | viability, T/C (second compound 1 µM, first compound 0.316 µM) 79.3% | viability, T/C (second compound 1 µM, first compound 1 µM) 72.6% | viability, T/C (second compound 1 µM, first compound 3.16 µM) 46% | viability, T/C (second compound 1 µM, first compound 10 µM) 19.7% | viability, T/C [9] 87.4% | viability, T/C [10] 88.3% | viability, T/C (second compound 3.16 µM, first compound 0.316 µM) 87.1% | viability, T/C (second compound 3.16 µM, first compound 1 µM) 59.8% | viability, T/C (second compound 3.16 µM, first compound 3.16 µM) 40.3% | viability, T/C (second compound 3.16 µM, first compound 10 µM) 20% | viability, T/C [11] 75.3% | viability, T/C [12] 81.3% | viability, T/C (second compound 10 µM, first compound 0.316 µM) 72.2% | viability, T/C (second compound 10 µM, first compound 1 µM) 55.1% | viability, T/C (second compound 10 µM, first compound 3.16 µM) 39.8% | viability, T/C (second compound 10 µM, first compound 10 µM) 19%
